Laboratory results reported in US5968959A, “Method for the prevention and treatment of stunned myocardium” (Orion Corporation, priority 1998, dated 1999).
Entries after “also recorded” stand apart in the source; their conditions may differ.

Columns and labels:
[1] = molecular target: T1, PLB[1-36 a.a.] (36 amino acid N-terminal fragment of human phospholamban) (Homo sapiens, UniProt P26678); experiment: Circular dichroism (CD) spectroscopy, binding to cytosolic part of phospholamban; conditions: FIG. 2
T1 construct: the pSer16/pThr17 doubly phosphorylated peptide was compared
T1 sequence (P26678 1-36): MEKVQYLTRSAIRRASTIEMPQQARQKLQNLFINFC
Protocol: (§1) Both the 36 amino acid N-terminal fragment of human phospholamban (PLB [1-36 a.a.]) and the 36 amino acid N-terminal fragment of double phosphorylated human phospholamban (PLB [1-36 a.a.](Ser16PO3 -, Thr17PO3 -)) were obtained by peptide synthesis. The peptides were purified by reverse phase HPLC, analysed for homogenity by mass spectrometry and were found pure at 97%. The peptides were lyophilized and then resuspended in water at the final concentration of 0.1 mM, for CD analysis. The pH of both solutions was between 3 and 4 and was not further adjusted. Compound of Example 1c was solved in water at a final concentration of 0.1 mM. The pH was adjusted at 7.2 by adding 1 N NaOH.
(§2) Circular dichroism spectra were acquired at 24° C. on samples of 100 μl. The spectra were recorded on a Jasco J-720 spectropolarimeter using a 1 mm path-length quartz cuvette. The band width was 1 nm, the sensitivity 20 mdeg, the step resolution 0.5 nm, the response time 0.5 sec, and the scan speed 20 nm/min (from 250 to 190 nm). The spectra were expressed in [θ]×10^-3 ×degrees×cm^2 ×dmol^-1.

[2] = molecular target: T2, SR Ca2+-ATPase in fast skeletal muscle SR vesicles (Cavia porcellus, UniProt H0UXI0); experiment: Calcium uptake assay (fluo-3), fast skeletal muscle (psoas m.) SR vesicles, which lack phospholamban; assay type: biochemical, guinea pig; conditions: for activation at 100 µM: compound 100 μM
T2 construct: Their hearts or the psoas muscles were excised; from tissue; host or cells: guinea pig psoas muscle, SR vesicles
Protocol: (§3) Preparation of the SR-vesicles
(§4) Guinea pigs (10-12) were decapited. Their hearts or the psoas muscles were excised, washed in ice-cold 0.9% NaCl and cut into pieces in a buffer containing 20 mM Tris-maleate, 0.3 M sucrose, pH 7.0. Thereafter tissue pieces were homogenized with Polytron and further with Potter (10 strokes). The homogenate was centrifugated at 1000 g for 15 min at 4° C. The supernatant was collected and the pellet was resuspended into 5 ml of the buffer (20 mM Tris-maleate, 0.3 M sucrose, pH 7.0) and recentrifugated at 1000 g for 10 min at 4° C. The obtained supernatant was combined with the earlier collected supernatant and centrifugated once again at 10 000 g for 20 min at 4° C. The final supernatant was filtered into a bottle equipped with a magnetic stirrer. KCl was added to the filtered supernatant to achieve the final concentration of 0.6 M (at 4° C.). The obtained solution was centrifugated at 100 000 g for 60 min at 4° C. The pellet was suspended in 5 ml of the buffer containing 20 mM Tris-maleate, 0.3 M sucrose, pH 7.0 and centrifugated at 100 000 g for 60 min at 4° C. The obtained pellet was suspended in 5 ml of buffer containing 20 mM Tris-maleate, 0.3 M sucrose, 0.1 M KCl, pH 7.0 and stored at -80° C. until use. The protein concentration was also measured in order to standardise the separately prepared vesicle preparations.
(§5) In the calcium uptake assay, the fluorescent indicator, fluo-3 was used to detect the decrease of the extravesicular Ca^2+ -concentration, when the SR Ca^2+ ATPase was transferring Ca^2+ from the extravesicular space into the SR-vesicles.
(§6) The SR-vesicles obtained above (50 μg protein/ml) were pre-incubated with or without the test compound at 37° C. for 5 min in the assay buffer containing 40 mM imidazole, 95 mM KCl, 5 mM NaN3, 5 mM MgCl2, 0.5 mM EGTA, 5 mM potassium oxalate, 2 μM ruthenium red, 5 μM fluo-3, pH 7.0. The free calcium was adjusted to 0.1 μM or to 0.04 μM by CaCl2. The reaction was initiated by adding ATP (5 mM). The final reaction volume was 1.5 ml. The fluorescence of reaction mixture was measured for 3 min by using the excitation and emission wavelengths of 510 nm and 530 nm, respectively.
(§7) The experiments were carried out at 0.1 μM and 0.04 μM free calcium concentrations, respectively.

[3] = molecular target: T3, phospholamban inhibition of SR Ca2+-ATPase in cardiac muscle SR vesicles (Cavia porcellus, UniProt A0A286XLC6); experiment: Calcium uptake assay (fluo-3), cardiac SR vesicles; assay type: biochemical, guinea pig; conditions: for activation at 100 µM: compound 100 μM
T3 construct: Their hearts or the psoas muscles were excised; from tissue; host or cells: guinea pig heart (ventricular myocardium), SR vesicles
T3 sequence (A0A286XLC6 1-52): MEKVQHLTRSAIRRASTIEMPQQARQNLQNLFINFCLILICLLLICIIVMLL
Protocol: as §3, §4, §5, §6, §7

[4] = system: PLB[1-36 a.a.](Ser16PO3-, Thr17PO3-); experiment: Circular dichroism (CD) spectroscopy, binding to double phosphorylated phospholamban fragment; design: species or system human; conditions: double phosphorylated peptide; FIG. 2
Protocol: as §1, §2

[5] = system: isolated guinea-pig Langendorff heart; experiment: Development of stunned myocardium in isolated Langendorff heart (ischemia-reperfusion); conditions: 10 μM in perfusion buffer; three 8 min global ischemia periods each followed by reperfusion; FIG. 3B
Protocol: Guinea-pigs of either sex weighing 300-400 g were used in the study. After the guinea-pig was sacrificed by a blow on the skull and decapitated the heart was rapidly excised. The heart was then rinsed in oxygenated perfusion buffer. A cannula was inserted into the aorta and secured with a ligature. Retrograde perfusion began as soon as the heart was placed in a thermostatically controlled moist chamber of the Langendorff apparatus. Modified Tyrode solution (37° C.), equilibrated in a thermostatically controlled bulb oxygenator with carbogen (95% O2 and 5% CO2) was used as a perfusion buffer. The composition of the Tyrode solution was (in mM): NaCl 135; MgCl2 ×6H2 O 1; KCl 5; CaCl2 ×2H2 O 2; NaHCO3 15; Na2 HPO4 ×2H2 O 1; glucose 10; pH 7.3-7.4. The experiments were carried out under constant pressure condition (50 mmHg). After a short prestabilization (10 min) a latex balloon attached through the stainless-steel cannula to a pressure transducer was carefully placed into the left ventricle through the left pulmonary vein and the left atrium. The latex balloon, the cannula and the chamber of the pressure transducer were filled with ethylene glycol/water (1:1) mixture avoiding any air-bubble. The isovolumetric left ventricular pressure was recorded through the pressure transducer. […]

[6] = 0.05 h, 0.04 μM free calcium, read-out: The stimulation (%) of Ca2+ uptake, B (fast skeletal muscle vesicles)
[7] = 0.05 h, 0.1 μM free calcium, read-out: The stimulation (%) of Ca2+ uptake, A (ventricular myocardium vesicles)

T2 sequence (H0UXI0 entry or part of it limits assumed): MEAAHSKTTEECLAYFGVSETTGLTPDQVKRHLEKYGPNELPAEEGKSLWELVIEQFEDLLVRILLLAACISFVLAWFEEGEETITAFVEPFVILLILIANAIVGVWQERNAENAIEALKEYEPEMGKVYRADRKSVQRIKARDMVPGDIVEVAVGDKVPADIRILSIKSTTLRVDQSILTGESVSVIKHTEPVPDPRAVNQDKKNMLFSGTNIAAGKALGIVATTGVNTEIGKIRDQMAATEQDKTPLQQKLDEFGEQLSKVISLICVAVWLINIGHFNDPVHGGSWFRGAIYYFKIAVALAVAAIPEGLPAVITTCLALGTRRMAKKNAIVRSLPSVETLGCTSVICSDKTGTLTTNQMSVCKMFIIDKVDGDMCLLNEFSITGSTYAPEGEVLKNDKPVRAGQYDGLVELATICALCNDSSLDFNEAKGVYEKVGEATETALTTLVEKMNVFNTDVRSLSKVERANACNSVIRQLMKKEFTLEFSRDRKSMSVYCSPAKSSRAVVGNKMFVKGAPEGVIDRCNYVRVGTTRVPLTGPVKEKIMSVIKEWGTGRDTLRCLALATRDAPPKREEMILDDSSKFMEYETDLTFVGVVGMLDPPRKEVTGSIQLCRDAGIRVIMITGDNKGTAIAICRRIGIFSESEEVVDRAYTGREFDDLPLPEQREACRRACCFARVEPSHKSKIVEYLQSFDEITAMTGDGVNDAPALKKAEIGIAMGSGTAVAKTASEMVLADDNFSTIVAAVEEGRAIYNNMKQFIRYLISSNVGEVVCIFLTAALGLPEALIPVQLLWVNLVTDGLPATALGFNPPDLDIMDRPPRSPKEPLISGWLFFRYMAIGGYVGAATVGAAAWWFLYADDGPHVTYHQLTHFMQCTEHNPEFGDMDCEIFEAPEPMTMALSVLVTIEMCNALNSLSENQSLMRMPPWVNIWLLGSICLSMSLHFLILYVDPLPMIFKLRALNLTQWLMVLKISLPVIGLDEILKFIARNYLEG

## Cc1c(Cc2ccccc2)c(=O)oc2cc(OCc3nnn[nH]3)cc(OCc3nnn[nH]3)c12 [Example 1c, 3-Benzyl-5,7-bis[(1H -tetrazol-5-yl)methoxy]-4-methyl-2H -1-benzopyran-2-one]
[1]; 50 μM each, water, room temperature
  Change in CD spectrum (α-helical contribution) of PLB[1-36 a.a.] after addition of compound: marked increase of α-helical contribution
[1]; unphosphorylated peptide
  Interaction (complex formation) with PLB[1-36 a.a.] by CD: forms a complex with PLB; also recorded: interacts with the cytosolic part of phospholamban
[2]; [6]
  activation at 100 µM: -6%
[3]; [7]
  activation at 100 µM: 42%
[4]
  Interaction with phosphorylated PLB[1-36 a.a.](Ser16PO3-, Thr17PO3-) by CD: does not interact or interacts weakly

## O=c1oc2cc(OCc3nnn[nH]3)cc(OCc3nnn[nH]3)c2c2c1C(c1ccccc1)CCC2 (centres unmarked) [Example 2c, 7,8,9,10-Tetrahydro-1,3-bis[(1H -tetrazol-5-yl)methoxy]-7-phenyl-6H-dibenzo[b,d]pyran-6-one]
[2]; [6]
  activation at 100 µM: -1%

## Cc1c(Cc2ccccc2)c(=O)oc2cc(OCc3noc(=O)[nH]3)cc(OCc3noc(=O)[nH]3)c12 [Example 3c, 3-Benzyl-5,7-bis[(2,5-dihydro-5-oxo-4H -1,2,4-oxadiazol-3-yl)-methoxy]-4-methyl-2H -1-benzopyran-2-one]
[2]; 0.05 h, compound 20 μM, 0.04 μM free calcium, read-out: The stimulation (%) of Ca2+ uptake, B (fast skeletal muscle vesicles)
  activation at 20 µM: 0%

## Cc1c(CCc2ccccc2)c(=O)oc2cc(OCc3nnn[nH]3)cc(OCc3nnn[nH]3)c12 [Example 7c, 5,7-Bis[(1H-tetrazol-5-yl)methoxy]-4-methyl-3-(2-phenylethyl)-2H-1benzopyran-2-one]
[2]; [6]
  activation at 100 µM: -17%
[3]; [7]
  activation at 100 µM: 5%

## Cc1c(Cc2ccccc2)c(=O)n(Cc2ccccc2)c2cc(OCc3nnn[nH]3)cc(OCc3nnn[nH]3)c12 [Example 8g, 5,7-Bis[(1H-tetrazol-5-yl)methoxy]-1,3-dibenzyl-4-methyl-2(1H)-quinolinone]
[2]; 0.1-10 μM
  Effect on the calcium uptake into the SR vesicle prepared from the fast skeletal muscle: did not change the calcium uptake
[2]; 0.05 h, compound 10 μM, 0.04 μM free calcium, read-out: The stimulation (%) of Ca2+ uptake, B (fast skeletal muscle vesicles)
  activation at 10 µM: 0%
[5]
  Development of stunned myocardium (left ventricular systolic pressure): complete inhibition of the development of stunned myocardium; also recorded: completely inhibited the development of stunned myocardium
[3]; 0.1, 1.0 and 10 μM, FIG. 1
  Effect on the Ca2+ uptake rate into the cardiac muscle SR vesicles: accelerated the calcium uptake

## Cc1c(Cc2ccccc2)c(=O)n(Cc2ccccc2)c2cc(OCC(=O)NO)cc(OCC(=O)NO)c12 [Example 23, 5,7-Bis(hydroxyaminocarbonylmethoxy)-1,3-dibenzyl-4-methyl-2(1H)-quinolinone]
[3]; 0.05 h, compound 5 μM, 0.1 μM free calcium, read-out: The stimulation (%) of Ca2+ uptake, A (ventricular myocardium vesicles)
  activation at 5 µM: 20%
